# Results reported in paper PMC8804275 (IBRO Neuroscience Reports, 2022).
# Columns and labels:
# [1] = molecular target: T1, hCB1R (Homo sapiens, UniProt P21554); assay: HitHunter cAMP assay, inhibition of forskolin-stimulated cAMP; type: cell-based; conditions: 10 µM FSK, 90 min, 37 °C; agonism mode without CP55,940; allosteric ago-PAM
# [2] = molecular target: T1, hCB1R; assay: PathHunter βarrestin2 recruitment assay; type: cell-based; conditions: 90 min, 37 °C; agonism mode without CP55,940; allosteric ago-PAM
# T1 sequence (P21554 whole entry): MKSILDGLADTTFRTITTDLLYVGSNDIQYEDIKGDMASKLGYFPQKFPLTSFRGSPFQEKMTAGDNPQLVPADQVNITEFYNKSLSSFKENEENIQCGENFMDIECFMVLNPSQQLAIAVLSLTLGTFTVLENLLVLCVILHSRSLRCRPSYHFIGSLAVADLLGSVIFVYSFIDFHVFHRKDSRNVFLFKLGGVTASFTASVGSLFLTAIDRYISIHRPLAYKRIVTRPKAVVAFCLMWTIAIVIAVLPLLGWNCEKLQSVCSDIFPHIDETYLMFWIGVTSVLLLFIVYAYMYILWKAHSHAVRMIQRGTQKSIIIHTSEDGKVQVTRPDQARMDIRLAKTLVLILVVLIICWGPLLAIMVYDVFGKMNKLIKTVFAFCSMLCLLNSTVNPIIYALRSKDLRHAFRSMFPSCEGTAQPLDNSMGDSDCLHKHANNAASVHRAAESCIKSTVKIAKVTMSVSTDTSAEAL
compound,measurement,setting,value
GAT591,EC50,[1],4.1 nM
same,EC50,[2],1300 nM
O=[N+]([O-])CC(c1ccccc1F)c1c(-c2cccc(F)c2)[nH]c2c(F)cccc12 (stereo not shown) [GAT593],EC50,[1],45 nM
same,EC50,[2],> 10000 nM
